Assay results: ChEMBL document CHEMBL3414502, “Identification of protein kinase CK2 inhibitors using solvent dipole ordering virtual screening” (Eur J Med Chem, 2015)
Activity calls are given as the source filed them. The rule behind the calls is not given here.

Experiments:
[1] = target: Casein kinase II (Homo sapiens) (UniProt P67870+P68400+P19784); experiment: Competitive inhibition of CK2 kinase (unknown origin) by Lineweaver-Burk plot analysis in presence of ATP; type: protein-complex assay
Casein kinase II = Casein kinase II (Homo sapiens, UniProt P19784+P67870+P68400); experiment: Inhibition of CK2 kinase (unknown origin) using RRRDDDSDDD as substrate after 10 mins by topcount analysis in presence of [gamma-32P]ATP and 90 uM ATP; type: protein-complex assay

SMILES | competitive inhibition (qualitative) [1] | IC50 (Casein kinase II)
O=c1oc2ccc([N+](=O)[O-])cc2cc1-c1csc(Nc2ccccc2)n1 | Active | 8.6 µM
Nc1nc2ccc(NC(=S)NC(=O)c3cccs3)cc2s1 | – | 25.1 µM
CCOc1cc(-c2nc3c(cnn3-c3ccccc3)c(=O)[nH]2)ccc1O | – | 39.9 µM
Cc1nn(C)cc1-c1cc(-c2nnc(Nc3ccn(Cc4ccccc4Cl)n3)s2)no1 | Active | 3.7 µM
O=c1[nH]c(-c2ccc(OCc3ccccc3)cc2)nc2c1cnn2-c1ccccc1 | – | 11.1 µM
O=c1[nH]nc(-c2ccco2)c2cn(-c3cccc([N+](=O)[O-])c3)nc12 | – | 46.3 µM
O=C(O)COc1ccc2c(c1)O/C(=C\c1ccco1)C2=O | – | 11 µM
COc1ccc(-c2nc3c(sc4nc(C(F)F)cc(C)c43)c(=O)[nH]2)cc1Cn1cc([N+](=O)[O-])cn1 | Active | 7.7 µM
O=c1[nH]n2c(=O)c3c([nH]c2c1/N=N/c1ccccc1Cl)CCC3 | Active | 3.8 µM
O=C(COC(=O)c1c[nH]c2ccccc12)Nc1ccc2[nH]c(=O)[nH]c2c1 | – | 28.5 µM
O=c1cc(-c2ccc(O)cc2)oc2c1ccc1ccccc12 | Active | 9.7 µM
COc1ccc(/C=C2\Oc3cc(OCC(=O)O)ccc3C2=O)cc1OC | Active | 6 µM
COc1cc(/C=C2/C(=O)NN(c3ccc(C)c(Cl)c3)C2=O)ccc1OCC(=O)O | – | 28.9 µM
CCC(=O)Nc1nnc(-c2ccc([N+](=O)[O-])cc2)s1 | – | 27.9 µM
CC(C)(C)c1ccc(C2=N/C(=C/c3ccc(C(=O)O)cc3)C(=O)O2)cc1 | – | 13.2 µM
COc1cccc(NC(=O)Nc2nnc(-c3ccc([N+](=O)[O-])cc3)s2)c1 | Active | 7.6 µM
Nc1nnc(-c2ccc(C(=O)O)cc2)s1 | – | 27.4 µM
O=C1OC(c2sc3ccccc3c2Cl)=N/C1=C/c1ccc(C(=O)O)cc1 | – | 6 µM
COc1ccc(-c2nc(C(N)=O)c3[nH]c(=O)n(-c4ccc(OC)c(OC)c4)c3n2)cc1 | – | 50 µM
O=C1OC(c2ccc(-c3ccccc3)cc2)=N/C1=C/c1ccc(C(=O)O)cc1 | – | 13.9 µM
CCOc1ccc(C2=N/C(=C/c3ccc(C(=O)O)cc3)C(=O)O2)cc1 | – | 43 µM
NC(=O)c1nc(-c2ccncc2)nc2c1[nH]c(=O)n2-c1ccc2c(c1)OCO2 | – | 19.6 µM
O=C(COC(=O)c1cc(Br)c(Br)s1)Nc1ccc2[nH]c(=O)[nH]c2c1 | – | 15.2 µM
Cc1cc(Br)c(N2C(=O)NC(=O)C(/C=N/c3ccc(C(=O)O)c(O)c3)C2=O)cc1C (stereo unspecified) | – | 28.6 µM
